Patent US12036194B1, “Methods of administering solriamfetol to lactating women” (Axsome Malta Ltd., priority 2022, dated 2024)
Counter-ions that a name gives are not always drawn. Like-named read-outs stand apart in the source and are kept apart here.

What was measured:
[1] = rats; breast milk; cited from earlier work
[2] = Phase 4 open-label single-dose study: pharmacokinetics of solriamfetol in plasma of healthy postpartum women; format: in vivo, human; conditions: for AUC(0-inf) / AUC(0-t) / Cmax / Vd/F / half-life / Tmax: female, human, po, 150 mg
Procedure: (§1) A Phase 4, open-label, single-dose study to evaluate the pharmacokinetics (PK) of solriamfetol in the breast milk and plasma of healthy postpartum women following oral administration of a 150 mg solriamfetol tablet.
(§2) The study was conducted in 6 healthy adult lactating women who were between 15 and 37 weeks postpartum and were administered a single oral dose of SUNOSI 150 mg. SUNOSI was excreted in breast milk with a milk to plasma AUC ratio of approximately 2:1. […] The average amount that would be passed to the infant was estimated to be 0.59 mg over 24 hours, which is about 4.0% of the maternal dose on a weight-adjusted basis. The data from the lactation study indicate that SUNOSI is transferred to breastmilk in nursing mothers, with the relative infant dose (RID) is approximately 4% of the maternal weight-adjusted dosage. Data to assess the effects of SUNOSI on a breastfed infant or on milk production is not provided. The developmental and health benefits of breastfeeding should be considered along with the mother's clinical need for SUNOSI and any potential adverse effects on the breastfed child from SUNOSI or from the underlying maternal condition. Breastfed infants should be monitored for adverse reactions, such as agitation, insomnia, anorexia, and reduced weight gain.
(§3) On Day −1, eligible subjects underwent the baseline procedures. On Day 1, 2 hours after a light breakfast, subjects were to receive a single dose of solriamfetol 150 mg with 240 mL of water. Subjects had to fast for approximately 4 hours after the first dose; water was allowed except for 1 hour before and 1 hour after dosing with the study drug.
(§4) Pharmacokinetic analysis of breast milk obtained from both breasts (by pumping) was evaluated prior to dose administration and at intervals up to 72 hours postdose. Blood samples were also collected for plasma solriamfetol quantitation and PK analysis predose and at timepoints up to 72 hours postdose. Solriamfetol breast milk and plasma concentrations were measured using validated bioanalytical methods. Safety was assessed throughout the study by 12-lead ECG, vital sign measurements, the Columbia-Suicide Severity Rating Scale (C-SSRS), and the incidence of adverse events (AE).
Blood samples for plasma PK evaluation were collected at the following time points: Predose, 1, 1.5, 3, 6, 8.5, 10, 13, 15, 21, 24, 28, 36, 44, and 72 hours following dosing on Day 1. General study methodology is outlined in Table 6.
(§5) Serial blood samples (4 mL) were collected and dispensed into labeled K2EDTA tubes. The actual time of blood collection for all samples was recorded on the eCRF. Solriamfetol concentration in breast milk and plasma were determined using a validated bioanalytical method (LC-MS/MS) at Origin Bioanalytical Laboratory. The analytical range (lower limit of quantitation [LLOQ] to upper limit of quantitation) for plasma solriamfetol was 8.42 to 4210.00 ng/mL, and breast milk solriamfetol was 10.0 to 8000 ng/mL.
Pharmacokinetic parameters were derived with Phoenix® WinNonlin® Version 8.3 (Certara, Inc., Princeton, New Jersey, USA) and/or SAS© Version 9.4 (SAS Institute, Inc., Cary, North Carolina, USA).
Pharmacokinetic concentrations and parameters were summarized using descriptive statistics, including n, arithmetic mean, SD, coefficient of variation (CV %), median, min, max, Geometric mean (Geo-mean) and the geometric coefficient of variation (Geo-CV %). For the PK parameter tmax, only n, median, minimum, and maximum was presented.

[3] = Phase 4 open-label single-dose study: pharmacokinetics of solriamfetol in breast milk of healthy postpartum women; format: in vivo, human; conditions: for Kp / AUC(0-inf) / AUC(0-t) / Cmax / half-life / Tmax: female, human, po, 150 mg; for Kp: breast milk / plasma
Procedure: as §1, §2, §3, §4
Breast milk collection: Solriamfetol concentration in breast milk and plasma was evaluated based on samples collected prior to and postdose on Days 1 to 4. Breast milk was collected from both breasts, using electronic breast pumps, during the following intervals: From −2 to 0 at predose and at 0 to 2, 2 to 4, 4 to 8, 8 to 12, 12 to 18, 18 to 24, 24 to 32, 32 to 40, 40 to 48, and 48 to 72 hours postdose on Day 1. The midpoint of each breast milk collection interval was used as the time variable.
Breast milk was collected as often as needed during the assigned intervals; however, at the end of each interval, breast milk was pumped from both breasts and collected. At the end of each collection interval, all milk expressed from both breasts during that interval was pooled. The milk was thoroughly mixed by gently inverting the collection vessel 10 times to ensure homogeneity in milk composition. The weight and volume of the collected milk during each interval was also recorded.
as §5
Pharmacokinetic parameters were derived with Phoenix® WinNonlin® Version 8.3 (Certara, Inc., Princeton, New Jersey, USA) and/or SAS© Version 9.4 (SAS Institute, Inc., Cary, North Carolina, USA). […]

[4] = Sunosi label, cited from earlier work
[5] = cited from earlier work
[6] = single oral 150 mg solriamfetol tablet, N = 6
[7] = single oral 150 mg solriamfetol tablet, N = 6, hydrochloride
[8] = single oral 150 mg solriamfetol tablet, N = 6, listed as solriamfetol, hydrochloride
[9] = breast milk, single oral 150 mg solriamfetol tablet, N = 6, hydrochloride
[10] = breast milk, single oral 150 mg, N = 6
[11] = breast milk, single oral 150 mg, N = 6, hydrochloride
[12] = breast milk, single oral 150 mg, N = 6, listed as solriamfetol, hydrochloride
[13] = over 72 hours, single oral 150 mg
[14] = healthy male and female patients not postpartum

For NC(=O)OC[C@H](N)Cc1ccccc1 [Solriamfetol, (R)-2-amino-3-phenylpropyl carbamate (APC) hydrochloride], the “solriamfetol milk concentrations versus plasma concentrations” value [1] is listed as “higher than”, the AUC(0-inf) ([2]; single oral 150 mg solriamfetol tablet, N = 6, read-out: AUC0-inf, Geometric Mean) is listed as 6340 ng·h/mL and the AUC(0-t) ([2]; single oral 150 mg solriamfetol tablet, N = 6, read-out: AUC0-t, Arithmetic Mean (CV %)) is listed as 6440 ng·h/mL. It also gave an AUC(0-t) ([2]; single oral 150 mg solriamfetol tablet, N = 6, read-out: AUC0-t, Geometric Mean) of 6240 ng·h/mL, a Cmax ([2]; single oral 150 mg solriamfetol tablet, N = 6, read-out: Cmax, Arithmetic Mean (CV %)) of 905 ng/mL and a Cmax ([2]; single oral 150 mg solriamfetol tablet, N = 6, read-out: Cmax, Geometric Mean) of 892 ng/mL. For the same compound, the Vd/F ([2]; single oral 150 mg solriamfetol tablet, N = 6, read-out: Vz/F, Arithmetic Mean (CV %)) was 169 L, the Vd/F ([2]; single oral 150 mg solriamfetol tablet, N = 6, read-out: Vz/F, Geometric Mean) was 162 L and the half-life ([2]; single oral 150 mg solriamfetol tablet, N = 6, read-out: t1/2, Arithmetic Mean (CV %) (converted)) was 4.8 h. For the same compound, the half-life ([2]; single oral 150 mg solriamfetol tablet, N = 6, read-out: t1/2, Geometric Mean (converted)) was 4.75 h, the Tmax ([2]; single oral 150 mg solriamfetol tablet, N = 6, read-out: tmax, Median (min, max)) was 1.25 h and the AUC(0-inf) ([2]; single oral 150 mg solriamfetol tablet, healthy postpartum women N = 6, read-out: AUC0-inf, Arithmetic Mean (CV %)) was 6540 ng·h/mL. The half-life ([2]; single oral 150 mg, read-out: t1/2 (approximate) (converted)) was about 5 h, the Tmax ([2]; single oral 150 mg, read-out: tmax range) was 1 to 3 h and the “CL/F, Geometric Mean” value [2, 6] was 23.66 L/h. For the same compound, the “Lambda_z, Arithmetic Mean (CV %)” value [2, 6] was 0.1478 (19.1) 1/h, the “Lambda_z, Geometric Mean” value [2, 6] was 0.1459 h⁻¹ and the “CL/F, Arithmetic Mean (CV %)” value [2, 7] was 24.40 (26.8) L/h. The “t1/2, Arithmetic Mean (CV %)” value [2, 7] was 4.804 (15.2) h, the “CL/F, Arithmetic Mean (CV %)” value [2, 8] was 24.40 L/h and the “tmax, Median (min, max)” value [2, 8] was 1 h. The “Milk:Plasma Ratio, Arithmetic Mean (CV %)” value ([3]; AUC in breast milk divided by AUC in plasma, single oral 150 mg, N = 6) was 2.136 (35.8), the “time by which near complete excretion in breast milk was observed” value ([3]; after dosing, single oral 150 mg) was at most 24 h and the “Amilk, Geometric Mean” value ([3]; amount excreted in breast milk over 72 hours, single oral 150 mg, N = 6) was 0.5651 mg. The “Amilk, Arithmetic Mean (CV %)” value ([3]; amount excreted in breast milk over 72 hours, single oral 150 mg, N = 6, hydrochloride) was 0.6880 (67.9) mg, the “Amilk, Arithmetic Mean (CV %)” value ([3]; amount excreted in breast milk over 72 hours, single oral 150 mg, N = 6, listed as solriamfetol, hydrochloride) was 0.6880 mg and the “Lambda_z, Arithmetic Mean (CV %)” value ([3]; breast milk, single oral 150 mg solriamfetol tablet, N = 6) was 0.1446 (18.8) 1/h. For the same compound, the “t1/2, Arithmetic Mean (CV %)” value [3, 9] was 4.954 (21.4) h, the “tmax, Median (min, max)” value [3, 9] was 1.12 h and the “Daily Infant Dose, Geometric Mean” value [3, 10] was 0.5856 mg. The “Relative Infant Dose, Geometric Mean” value [3, 10] was 4.030%, the “Daily Infant Dose, Arithmetic Mean (CV %)” value [3, 11] was 0.6927 (63.5) mg and the “Relative Infant Dose, Arithmetic Mean (CV %)” value [3, 11] was 4.602 (60.6) %. For the same compound, the “Daily Infant Dose, Arithmetic Mean (CV %)” value [3, 12] was 0.6927 mg, the “Relative Infant Dose, Arithmetic Mean (CV %)” value [3, 12] was 4.602% and the “average amount that would be passed to the infant” value ([3]; estimated, over 24 hours, single oral 150 mg) was 0.59 mg. The “share of the total amount excreted in breast milk over 72 hours” value ([3]; excreted by 8 hours) was “approximately 78%”, the “share of the total amount excreted in breast milk over 72 hours” value ([3]; excreted by 24 hours) was about 98% and the Kp ([3]; AUC in breast milk divided by AUC in plasma, single oral 150 mg, N = 6, read-out: Milk:Plasma Ratio, Geometric Mean) was 2.05. The Kp ([3]; breast milk vs plasma, single oral 150 mg, read-out: solriamfetol exposure/concentrations (Cmax, AUCs) in breast milk relative to plasma) was about 2, the AUC(0-inf) ([3]; breast milk, breast milk, single oral 150 mg solriamfetol tablet, N = 6, read-out: AUC0-inf, Geometric Mean) was 12900 ng·h/mL and the AUC(0-t) ([3]; breast milk, breast milk, single oral 150 mg solriamfetol tablet, N = 6, read-out: AUC0-t, Arithmetic Mean (CV %)) was 13700 ng·h/mL. For the same compound, the AUC(0-t) ([3]; breast milk, breast milk, single oral 150 mg solriamfetol tablet, N = 6, read-out: AUC0-t, Geometric Mean) was 12800 ng·h/mL, the Cmax ([3]; breast milk, breast milk, single oral 150 mg solriamfetol tablet, N = 6, read-out: Cmax, Arithmetic Mean (CV %)) was 2070 ng/mL and the Cmax ([3]; breast milk, breast milk, single oral 150 mg solriamfetol tablet, N = 6, read-out: Cmax, Geometric Mean) was 1860 ng/mL. The half-life ([3]; breast milk, breast milk, single oral 150 mg solriamfetol tablet, N = 6, read-out: t1/2, Arithmetic Mean (CV %) (converted)) was about 5 h, the half-life ([3]; breast milk, breast milk, single oral 150 mg solriamfetol tablet, N = 6, read-out: t1/2, Geometric Mean (converted)) was 4.87 h and the Tmax ([3]; breast milk, breast milk, single oral 150 mg solriamfetol tablet, N = 6, read-out: tmax, Median (min, max)) was about 1.1 h. For the same compound, the AUC(0-inf) ([3]; breast milk, breast milk, single oral 150 mg solriamfetol tablet, healthy postpartum women N = 6, read-out: AUC0-inf, Arithmetic Mean (CV %)) was 13800 ng·h/mL, the half-life ([3]; breast milk, breast milk, single oral 150 mg, read-out: t1/2 (approximate) (converted)) was about 5 h and the Tmax ([3]; breast milk, breast milk, single oral 150 mg, read-out: tmax range) was 1 to 3 h. For the same compound, the daily infant dose ([3]; further analysis, based on nominal infant weight of 6 kg, maternal single oral 150 mg) was 0.112 mg/kg, the “Arithmetic mean±SD amount excreted in breast milk” value [3, 13] was 0.6880 ± 0.4672 mg and the “cumulative median amount excreted in breast milk” value [3, 13] was 0.67 mg. For the same compound, the “apparent mean elimination plasma half-life” value [4, 14] was 7.1 h, the oral bioavailability [4, 14] was “approximately 95%” and the “median Tmax of peak plasma concentration” value ([4]; post-dose under fasted conditions, not postpartum) was 2 h. For the same compound, the “PK in fed versus fasted subjects” value ([5]; fed versus fasted) was “satisfied the criteria for bioequivalence”, the systemic elimination half-life ([5]; in vivo) was 5.0 to 7.6 h and the estimated accumulation ratio ([5]; once daily dosing) was 1.06.
